Laboratory results as given in ChEMBL document CHEMBL1201862, “PubChem BioAssay data set” (2004).
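Briefly, cells in 96-well plates were exposed to five compound concentrations for 48 h, and endpoints were estimated by linear interpolation. Abbreviation: GI50, concentration required for 50% inhibition of growth.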 The source made the active and inactive calls. Rule as the data show it: active = GI50 up to about 1.1 µM and inactive = higher.

Legend:
Experiment in all cases: NCI-60 cell line screen, 48 h
SF-539 = test system: SF-539
DLD-1 = test system: DLD-1
M19-MEL = test system: M19-MEL
OVCAR-5 = test system: OVCAR-5
HOP-62 = test system: HOP-62
SNB-19 = test system: SNB-19
786-0 = test system: 786-0
OVCAR-3 = test system: OVCAR-3
RXF 393 = test system: RXF 393
HCT-116 = test system: HCT-116
COLO 205 = test system: COLO 205
RPMI-8226 = test system: RPMI-8226
KM12 = test system: KM12
IGROV-1 = test system: IGROV-1
UO-31 = test system: UO-31

Measured: GI50

CC1=NN(C(=O)c2ccc(Cl)cc2)C(=O)/C1=C/c1cccc(O)c1
inactive: SF-539 > 100 µM | DLD-1 > 100 µM | M19-MEL > 100 µM | OVCAR-5 > 100 µM | HOP-62 > 100 µM | SNB-19 > 100 µM | 786-0 > 100 µM | OVCAR-3 > 100 µM | RXF 393 > 100 µM | HCT-116 > 100 µM | COLO 205 > 100 µM | RPMI-8226 > 100 µM | KM12 > 100 µM | IGROV-1 > 100 µM | UO-31 > 100 µM

CNC(=O)N(CCCC(NC(C)=O)C(=O)NCc1ccccc1)Cc1ccccc1 (stereo not given)
inactive: SF-539 > 100 µM | DLD-1 > 100 µM | M19-MEL > 100 µM | OVCAR-5 > 100 µM | HOP-62 > 100 µM | SNB-19 > 100 µM | 786-0 > 100 µM | OVCAR-3 > 100 µM | RXF 393 > 100 µM | HCT-116 > 100 µM | COLO 205 > 100 µM | RPMI-8226 > 100 µM | KM12 > 100 µM | IGROV-1 > 100 µM | UO-31 > 100 µM

C=C1CC2C(=O)N(c3ccccc3)C(=O)C2CC1n1[nH]c(=O)n(Cc2ccccc2)c1=O (stereo not given)
inactive: SF-539 > 100 µM | DLD-1 > 100 µM | M19-MEL > 100 µM | OVCAR-5 > 100 µM | HOP-62 > 100 µM | SNB-19 > 100 µM | 786-0 > 100 µM | OVCAR-3 > 100 µM | RXF 393 > 100 µM | HCT-116 > 100 µM | COLO 205 > 100 µM | RPMI-8226 > 100 µM | KM12 > 100 µM | IGROV-1 > 100 µM | UO-31 > 100 µM

COc1cc(CC2C(=O)OCC2[C@@H](OC(C)=O)c2ccc3c(c2)OCO3)c(Br)c(OC)c1OC (stereo not given in full)
inactive: SF-539 > 100 µM | DLD-1 > 100 µM | M19-MEL 37.8 µM | HOP-62 > 100 µM | SNB-19 > 100 µM | 786-0 > 100 µM | OVCAR-3 59.2 µM | RXF 393 51.3 µM | HCT-116 76.7 µM | COLO 205 36.8 µM | KM12 31.5 µM | IGROV-1 80.2 µM | UO-31 53.3 µM

COc1ccc(S(=O)(=O)N/N=C(\C)CN2C(=O)c3ccccc3C2=O)cc1OC
inactive: SF-539 > 100 µM | DLD-1 > 100 µM | M19-MEL > 100 µM | OVCAR-5 > 100 µM | HOP-62 > 100 µM | SNB-19 > 100 µM | 786-0 > 100 µM | OVCAR-3 > 100 µM | HCT-116 > 100 µM | COLO 205 > 100 µM | RPMI-8226 > 100 µM | KM12 > 100 µM | IGROV-1 > 100 µM | UO-31 > 100 µM

S=c1c2ccccc2c(=S)n2n1CC=CC2
inactive: SF-539 > 100 µM | DLD-1 > 100 µM | M19-MEL > 100 µM | OVCAR-5 > 100 µM | SNB-19 > 100 µM | 786-0 > 100 µM | OVCAR-3 > 100 µM | RXF 393 > 100 µM | HCT-116 > 100 µM | COLO 205 > 100 µM | RPMI-8226 > 100 µM | KM12 > 100 µM | IGROV-1 > 100 µM | UO-31 > 100 µM

CCCCCCc1cc2c(C)c(C)c(=O)oc2cc1OCCCOc1cc2oc(=O)c(C)c(C)c2cc1CCCCCC
inactive: SF-539 > 100 µM | DLD-1 > 100 µM | M19-MEL > 100 µM | OVCAR-5 > 100 µM | HOP-62 > 100 µM | SNB-19 > 100 µM | 786-0 > 100 µM | OVCAR-3 > 100 µM | RXF 393 43.4 µM | HCT-116 > 100 µM | RPMI-8226 > 100 µM | KM12 > 100 µM | IGROV-1 > 100 µM | UO-31 > 100 µM

Cc1cc(=O)oc2c1cc(OCC(=O)OCCN1CCCCC1)c1occ(C)c12
inactive: SF-539 > 100 µM | DLD-1 > 100 µM | M19-MEL > 100 µM | OVCAR-5 > 100 µM | SNB-19 > 100 µM | 786-0 > 100 µM | OVCAR-3 > 100 µM | RXF 393 > 100 µM | HCT-116 > 100 µM | RPMI-8226 > 100 µM | KM12 > 100 µM | UO-31 > 100 µM

CC(NS(=O)(=O)c1ccc(Cl)cc1)C(=O)O (stereo not given)
inactive: SF-539 > 100 µM | DLD-1 > 100 µM | M19-MEL > 100 µM | OVCAR-5 > 100 µM | SNB-19 > 100 µM | 786-0 > 100 µM | OVCAR-3 > 100 µM | RXF 393 > 100 µM | COLO 205 > 100 µM | RPMI-8226 > 100 µM | KM12 > 100 µM | IGROV-1 > 100 µM | UO-31 > 100 µM

O=C1C(Cl)=C(Cl)C(=O)N1c1ccc(Cl)c(Cl)c1Cl
inactive: SF-539 > 100 µM | DLD-1 34.9 µM | M19-MEL 88.3 µM | OVCAR-5 > 100 µM | HOP-62 > 100 µM | SNB-19 57.8 µM | 786-0 44.5 µM | OVCAR-3 41.6 µM | HCT-116 85.9 µM | COLO 205 29.9 µM | RPMI-8226 34 µM | KM12 > 100 µM | IGROV-1 > 100 µM | UO-31 > 100 µM

N/N=C(\c1nc2ccc(Cl)cc2nc1O)C(O)c1ccc(Cl)c(Cl)c1 (stereo not given)
inactive: SF-539 > 100 µM | DLD-1 46.7 µM | M19-MEL > 100 µM | OVCAR-5 > 100 µM | HOP-62 > 100 µM | SNB-19 > 100 µM | 786-0 80.7 µM | OVCAR-3 > 100 µM | RXF 393 > 100 µM | HCT-116 48.1 µM | COLO 205 88.3 µM | RPMI-8226 > 100 µM | KM12 70.5 µM | IGROV-1 > 100 µM | UO-31 > 100 µM

NC(=O)COc1ccc(Br)cc1Br
inactive: SF-539 > 100 µM | DLD-1 > 100 µM | M19-MEL > 100 µM | OVCAR-5 > 100 µM | HOP-62 > 100 µM | SNB-19 > 100 µM | 786-0 > 100 µM | OVCAR-3 > 100 µM | HCT-116 > 100 µM | COLO 205 > 100 µM | RPMI-8226 51.9 µM | KM12 85.3 µM | IGROV-1 > 100 µM | UO-31 > 100 µM

CC#CC1/C(=C\C(=O)OC)CCCC1O (stereo not given)
inactive: SF-539 > 100 µM | DLD-1 > 100 µM | M19-MEL > 100 µM | OVCAR-5 > 100 µM | HOP-62 > 100 µM | SNB-19 > 100 µM | 786-0 > 100 µM | OVCAR-3 > 100 µM | RXF 393 > 100 µM | HCT-116 > 100 µM | KM12 > 100 µM | UO-31 > 100 µM

c1ccc([S+](c2ccccc2)c2ccc(Sc3ccc([S+](c4ccccc4)c4ccccc4)cc3)cc2)cc1
inactive: SF-539 31.3 µM | DLD-1 29.2 µM | M19-MEL 18.1 µM | OVCAR-5 12.3 µM | HOP-62 39.7 µM | SNB-19 7.64 µM | 786-0 43.8 µM | OVCAR-3 10.2 µM | RXF 393 19.7 µM | HCT-116 21.8 µM | COLO 205 17.4 µM | RPMI-8226 4.88 µM | KM12 21.3 µM | IGROV-1 43.2 µM | UO-31 60 µM
